From US20060166319A1 (priority 2004, published 2006)

Legend:
NMR H/D exchange studies = assay type: physicochemical; details: rt
Protocol: Compound 7 (˜4 mg, ˜10 μmol) was dissolved in CD3OD (0.75 mL), and D2O (2 drops) was added. The reaction mixture was kept at rt and monitored by NMR (400 MHz). […] NaOD (30% w/w in D2O, 2 drops) was then added, and the solution monitored by NMR. […] After 25 h, the C5 proton peak completely disappeared.
To rule out the possibility that the loss of the C5 proton peak was due to decomposition, the resulting mixture was evaporated at rt under reduce pressure, and the residue was redissolved in CH3OH and allowed to stir for 1 day. The mixture was then evaporated to dryness in vacuo, and redissolved in CD3OD. The NMR spectrum was quickly taken, and the C5 proton peak was again observed. As before, the C5 proton peak slowly disappeared over a 1-day period.
To evaluate the importance of the imine bond on the acidity of the C5 proton, proline was dissolved in 0.75 mL CD3OD and 0.20 mL D2O and treated with […].

[1] = Stability studies of compound 8 to NaOH, LiOH and TFA (TLC); assay type: physicochemical; details: rt
Protocol: Stability Studies of Compound (8) to NaOH. NaOH (6 M, 20 μL, 0.12 mmol) was added to a solution of compound 8 (0.15 M, 100 μL, 0.015 mmol). The resulting mixture was allowed to react at rt over 3 days, during which the degradation of compound 8 was monitored by a ninhydrin TLC assay (CHCl3-MeOH—NH4OH(aq)=2:2:1).
Stability Studies of Compound (8) to LiOH. Compound 8 (21.9 mg, 84 μmol) was dissolved in water (2 mL) and LiOH.H2O (84.5 mg, 2.0 mmol) was added. This mixture was allowed to react at rt. While initially only starting material was observed by TLC (MeOH-EtOAc=4:1, Rf=0.26), after 24 h two new bands (Rf=0.10, 0.02) appeared. After 5 days, the solution was evaporated to dryness at rt, redissolved in MeOH (0.5 mL), and purified on chromatography silica gel. […] The other new band appears to be a mixture of species based on its NMR and MS data.
Stability Studies of Compound (8) to TFA. Compound 8 (21.7 mg, 0.083 mmol) was dissolved in MeOH (2 mL) and TFA (200 μL) was added. After 1 h, one new band (MeOH-EtOAc=2:1; Rf=0.22) was observed by TLC. The mixture was allowed to react to completion for 2 days at rt. The resulting mixture was evaporated to dryness, dissolved in MeOH (0.5 mL), and subjected to chromatography on silica gel. […] The peak for the C2 imine proton is absent, and the peak for the C5 proton is either absent or shifted.

PylS-His6 [2] = target: T1, PylS-His6 (Methanosarcina barkeri, UniProt Q6WRH6); test: Aminoacylation of tRNACUA in acid-urea gels (gel-shift, northern blot); assay type: biochemical; details: for aminoacylation of tRNA^lys in the M. acetivorans tRNA pool: tRNA^lys instead of tRNACUA
T1 construct: made in house; host or cells: E. coli BL21 (DE3)
T1 sequence (Q6WRH6 whole entry): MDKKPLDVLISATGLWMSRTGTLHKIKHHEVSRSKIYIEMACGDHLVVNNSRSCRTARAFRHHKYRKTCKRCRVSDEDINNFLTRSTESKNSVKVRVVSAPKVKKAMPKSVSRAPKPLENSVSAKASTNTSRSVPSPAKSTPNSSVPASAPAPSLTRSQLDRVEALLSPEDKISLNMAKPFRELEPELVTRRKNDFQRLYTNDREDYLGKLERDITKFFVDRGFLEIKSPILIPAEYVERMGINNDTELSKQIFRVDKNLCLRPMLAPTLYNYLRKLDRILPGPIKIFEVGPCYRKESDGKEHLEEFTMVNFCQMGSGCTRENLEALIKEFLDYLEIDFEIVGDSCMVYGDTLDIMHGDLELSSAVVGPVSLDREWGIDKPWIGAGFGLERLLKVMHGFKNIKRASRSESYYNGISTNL
Description: Recombinant PylS-His6 was purified by Ni affinity chromatography from lysates of Escherichia coli expressing the recombinant Methanosarcina barkeri pylS gene modified so as to add a carboxy-terminal hexahistidine tag to the gene product. The tRNA pool extracted from Methanosarcina acetivorans or tRNACUA transcribed in vitro was used in charging experiments. Charged and uncharged tRNA species were separated by electrophoresis in a denaturing acid-urea polyacrylamide gel and tRNACUA was specifically detected by northern blotting with an oligonucleotide probe.
The reaction was terminated after 5-30 min at 37° C. with an equal volume of 0.3 M sodium acetate, 8 M urea pH 5.0. Charged and uncharged tRNA were separated by acid-urea acrylamide gel electrophoresis, blotted to nitrocellulose and probed with a 5μ ^32P-end-labelled, 72-base oligonucleotide complementary to tRNA^CUA. Radioactivity was analysed with a STORM Phosphorimager (Amersham Biosciences).
(§1) Aminoacylation assay in acid-urea gels. […] Following incubation at 37° C. for 5 to 30 minutes, the reaction was terminated by addition of an equal volume of 2× loading dye (0.3 M sodium acetate, 8 M urea, pH 5.0) and charged and uncharged tRNA species analysed by acid-urea acrylamide gel electrophoresis following the methods outlined in Jester et al. Samples were electrophoresed in 14% polyacrylamide gels buffered with a 0.3 M sodium acetate-7 M urea solution, pH 5.0, at 50 volts and 4° C. for 24 hours. The same buffer without urea was used in the electrode chambers, and was replaced with fresh buffer every 6-8 hours. Finished gels were transblotted for 2 hours at 40 volts in 4° C. in a blotting solution of 10 mM Tris-acetate, 5 mM sodium acetate, and 0.5 mM EDTA, pH 8.0. The blot was then cross-linked by ultraviolet radiation (15000 μJ/cm2 per side) then prehybrized in 0.25 M sodium phosphate buffer, pH 7.2, and 5.7% SDS for at least 30 minutes. In order to detect charged and uncharged tRNACUA a 72 base oligonucleotide complementary to full length of tRNACUA was labeled with γ-^32P ATP and polynucleotide kinase. The probe was hybridized with the blot overnight at room temperature, then agitated at 22° C. for 5 minute in 10 mM sodium citrate, 150 mM NaCl, 1% SDS, pH 7.0, then agitated with two changes of 5 mM sodium citrate, 75 mM sodium chloride, 1% SDS, pH 7.0, for 5 minutes each. Radioactivity on the blot was imaged and analyzed using a STORM Phosphorimager (Amersham Biosciences).

His6-PylS = target: T2, His6-PylS (Methanosarcina barkeri, UniProt Q6WRH6); test: Gel-shift aminoacylation assay with N-terminally His-tagged PylS; assay type: biochemical
T2 construct: made in house; host or cells: E. coli (inferred from the control with untransformed E. coli)
T2 sequence (Q6WRH6 whole entry): as above
Protocol: as §1, with “The probe was hybridized with the blot overnight at room temperature, then agitated at 22° C. for 5 minute in 10 mM sodium citrate, 150 mM NaCl, 1% SDS, pH 7.0, then agitated with two changes of 5 mM sodium citrate, 75 mM sodium chloride, 1% SDS, pH 7.0, for 5 minutes each.” left out

PylS-His6 [3] = target: T1, PylS-His6; test: Pyrrolysine dependent pyrophosphate:ATP exchange; assay type: biochemical; parameters: apparent Vmax: unit not given here
Protocol: As a prerequisite of tRNA aminoacylation, an aminoacyl-adenylate and pyrophosphate are formed from the amino acid and ATP by an aminoacyl-tRNA synthetase. This reversible activation reaction can be assayed by the isotopic exchange of ^32P-pyrophosphate into ATP dependent on the addition of the cognate amino acid for the aminoacyl-tRNA synthetase in question.
The pyrophosphate exchange reaction was essentially performed following the method of Cole and Schimmel. All reactions were performed in duplicate at 37° C. The 100 to 200 μl reactions contained (unless noted) 0.3 to 1 μM PylSHis6. […] The specific activity of the radiolabel was adjusted from 4 to 10 dpm/pmol). The concentration of protein was 0.3 to 1 μM. At specific times, 25 μl aliquots were removed and quenched in 500 μl of a stop solution containing 1.6% (w/v) activated acid-washed charcoal (Sigma Chemical Co., St. Louis, Mo.), 80 mM sodium tetrapyrophosphate, and 3.5% (v/v) perchloric acid. Samples were filtered through Whatman GF/C glass-fiber filters and then the filter was washed three times with 5 ml of 40 mM sodium tetrasodium pyrophosphate solution containing 1.7% perchloric acid (v/v) and once with 5 ml 100% ethanol. Filters were dried at 80° C. for 5 minutes then placed in 20 ml scintillation vials containing 10 ml of Ultima Gold F scintillation cocktail (PerkinElmer), shaken once, and counted in a liquid scintillation analyzer. Identical reactions without amino acid, ATP, or enzyme were also set up as negative controls in duplicate. […] One substrate was kept constant at a concentration higher than its respective apparent Km value.

[4] = system: E. coli BL21 (DE3) expressing pylT, pylS and mtmB1; test: Pyrrolysine-dependent amber suppression (mtmB1 UAG readthrough, anti-MtmB immunoblot); assay type: cell-based; details: strain expressing pylT, 1 mM amino acid, 4 h induction
Description: As a reporter of UAG translation as a sense codon, we introduced the mtmB1 gene into E. coli BL21 (DE3). […] Plasmids were constructed bearing combinations of mtmB1, pylS and/or pylT under the control of the T7 promoter, and transformed into E. coli. […] Total cellular proteins from each strain were then separated by SDS-polyacrylamide-gel electrophoresis and mtmB1 gene products were detected by subsequent immunoblotting with polyclonal antibody specific for purified M. barkeri MtmB.
To test for amber suppression, overnight cultures were grown in Luria-Bertani broth (3 ml) with 100 μg ml^−1 ampicillin. Subsequently, 200 μl was inoculated into 1 ml fresh medium and grown to a D600 of 0.6. […] The mtmB1 gene products in equivalent amounts of lysates were then analysed by immunoblotting of a SDS 12.5% polyacrylamide gel with affinity-purified rabbit anti-MtmB antibody^6. The Rainbow Molecular Weight markers (Amersham Biosciences) were used.
To test for amber suppression, overnight cultures of a strain bearing one of the plasmids were grown in LB broth (3 mL) with 100 ug/ml final ampicillin. Subsequently, 200 μl of each culture was inoculated into 1 ml of fresh LB medium with ampicillin, and grown to an A600 of approximately 0.6. […]

[5] = system: E. coli BW25141(DE3) transformed with pDLGUS; test: beta-glucuronidase activity from uidA gene with UAG codon replacing AAA286; assay type: cell-based
Description: In order to avoid interference by the residue uidA gene, we employed a strain with most of uidA deleted, E. coli BW25141(DE3). This strain was transformed with pDLGUS, a variant of the pEC03 plasmid in which the mtmB1 gene was removed and the uidA gene introduced in its place.

Structure (SMILES): COC(=O)[C@H](CCCCNC(=O)[C@@H]1N=CC[C@H]1C)NC(=O)C(F)(F)F [Compound 7, Nα-Trifluoroacetyl-L-pyrrolysine methyl ester]
- change in NMR spectrum (NMR H/D exchange studies; CD3OD with D2O, 3-day period, no base): No change was observed
- time until C5 proton peak completely disappeared (H/D exchange) (NMR H/D exchange studies; CD3OD/D2O with NaOD): 25 h

Structure (SMILES): C[C@@H]1CC=N[C@H]1C(=O)NCCCC[C@H](N)C(=O)[O-].[Li+] [Compound 8, L-Pyrrolysine lithium salt]
- degradation in LiOH observed by TLC ([1]; LiOH in water, after 24 h): two new bands
- degradation in NaOH monitored by ninhydrin TLC ([1]; NaOH 6 M 20 μL added to 0.15 M solution, over 3 days): One new band
- degradation in TFA observed by TLC ([1]; TFA in MeOH, after 1 h): one new band

Structure (SMILES): NCCCC[C@H](N)C(=O)O [lysine, reference compound]
- formation of charged tRNACUA species (PylS-His6 [2]; 20 canonical amino acids each at 50 μM, or only 50 μM lysine, no pyrrolysine): not formed
- aminoacylation of tRNA^lys in the M. acetivorans tRNA pool (PylS-His6 [2]): does not aminoacylate
- lysyl- or pyrrolysyl-tRNA synthetase activity (His6-PylS): no lysyl-tRNA synthetase activity was detectable
- isotopic exchange into ATP above background (PylS-His6 [3]; incubation as long as 30 min, canonical 20 amino acids each at 100 μM, or 1 mM lysine): no detectable isotopic exchange
- UAG readthrough: expression of 50-kDa MtmB [4]: could not be replaced

Structure (SMILES): C[C@@H]1CC=N[C@H]1C(=O)NCCCC[C@H](N)C(=O)O [pyrrolysine, lysine in amide linkage with (4R,5R)-4-methyl-pyrroline-5-carboxylate]
- maximal conversion of deacylated tRNACUA to charged species (PylS-His6 [2]; deacylated M. acetivorans cellular tRNA pool, incubation with pyrrolysine, ATP and PylS-His6): 50%
- maximum of tRNACUA transcribed in vitro aminoacylated (PylS-His6 [2]; in vitro transcribed tRNACUA, synthetic pyrrolysine, ATP-dependent): 43%
- aminoacylation of tRNA^lys in the M. acetivorans tRNA pool (PylS-His6 [2]): does not aminoacylate
- lysyl- or pyrrolysyl-tRNA synthetase activity (His6-PylS): does have pyrrolysyl-tRNA synthetase activity
- Km (PylS-His6 [3]; 37° C., pH 7.2, other substrate held constant, read-out: apparent Km): 53 µM
- apparent Vmax (PylS-His6 [3]; exchange reaction, 37° C.): 120
- UAG readthrough: expression of 50-kDa MtmB [4]: large amounts of 50-kDa MtmB
- increase of beta-glucuronidase activity ([5]; 1 mM synthetic pyrrolysine versus absence of pyrrolysine): approximately 100 fold
- beta-glucuronidase activity ([5]; induced with IPTG in the presence of 1 mM synthetic pyrrolysine): 4. umol/min·mg protein
